Laboratory results reported in patent publication US12435068B2, “Anthelmintic compounds” (Elanco Animal Health GmBh, priority 2018, dated 2025).
Converted amounts (≈) assume the structure as drawn.

Legend:
[1] = tested on: Dirofilaria immitis microfilariae; assay: In Vitro Assay 2: Dirofilaria immitis microfilariae (DIROIM L1) motility; format: cell-based; conditions: 72 h, read-out: EC50 ppm
[2] = tested on: Dirofilaria immitis larvae; assay: In Vitro Assay 3: Dirofilaria immitis (DIROIM L4) larval motility; format: cell-based; conditions: 72 h, read-out: EC50 ppm
C. elegans Slo-1a = C. elegans Slo-1a (Caenorhabditis elegans, UniProt Q95V25)
C. elegans Slo-1a, sequence (Q95V25 whole entry): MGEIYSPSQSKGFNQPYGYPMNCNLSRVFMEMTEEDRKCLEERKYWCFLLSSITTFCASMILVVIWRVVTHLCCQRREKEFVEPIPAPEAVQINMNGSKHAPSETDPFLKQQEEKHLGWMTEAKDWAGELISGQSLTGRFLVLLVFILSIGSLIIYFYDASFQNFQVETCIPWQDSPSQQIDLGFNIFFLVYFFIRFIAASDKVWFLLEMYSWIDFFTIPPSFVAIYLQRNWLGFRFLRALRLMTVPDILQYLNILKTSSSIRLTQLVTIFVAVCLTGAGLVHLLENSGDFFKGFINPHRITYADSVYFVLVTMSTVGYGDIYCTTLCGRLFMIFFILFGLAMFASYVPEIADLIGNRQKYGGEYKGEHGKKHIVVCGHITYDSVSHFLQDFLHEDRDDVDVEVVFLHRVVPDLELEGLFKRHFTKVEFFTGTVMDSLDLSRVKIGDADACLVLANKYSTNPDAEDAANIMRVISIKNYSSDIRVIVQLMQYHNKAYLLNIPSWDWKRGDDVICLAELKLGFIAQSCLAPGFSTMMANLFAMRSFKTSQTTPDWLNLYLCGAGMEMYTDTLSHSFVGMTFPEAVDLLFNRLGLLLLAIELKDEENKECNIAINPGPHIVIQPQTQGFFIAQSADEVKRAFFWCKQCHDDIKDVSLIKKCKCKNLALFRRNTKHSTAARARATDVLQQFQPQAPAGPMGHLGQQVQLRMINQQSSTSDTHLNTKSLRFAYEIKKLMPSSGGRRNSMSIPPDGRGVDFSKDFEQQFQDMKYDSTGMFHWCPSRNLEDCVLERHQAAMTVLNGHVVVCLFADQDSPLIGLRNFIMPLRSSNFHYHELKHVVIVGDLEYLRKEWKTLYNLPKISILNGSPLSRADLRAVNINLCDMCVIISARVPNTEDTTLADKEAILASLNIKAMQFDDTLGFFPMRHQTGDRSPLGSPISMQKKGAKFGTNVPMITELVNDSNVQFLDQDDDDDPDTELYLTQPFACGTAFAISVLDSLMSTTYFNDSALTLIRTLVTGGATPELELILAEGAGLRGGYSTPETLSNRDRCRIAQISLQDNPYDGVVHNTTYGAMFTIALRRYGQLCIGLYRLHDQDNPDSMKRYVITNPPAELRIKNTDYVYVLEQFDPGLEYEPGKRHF
Procedure: Cells were cultured at 37° C. and 5% CO2 in MEMalpha with Gutamax I (Invitrogen, Nr.: 32571), supplemented with 10% (v/v) heat inactivated fetal bovine serum (Invitrogen, Nr.: 10500), G418 (1 mg/ml, Invitrogen, Nr.: 10131). Cells were detached using Accutase (Sigma, Nr.: A6964).
Membrane Potential Measurements
Laboratory compound testing was performed on 384-well microtiter plates (MTPs, Greiner, Nr.: 781092). 8000 cells/well were plated onto 384-well MTPs and cultured for 20 to 24 hours at 37° C. and 5% CO2. After removal of the cell culture medium, the cells were washed once with tyrode (150 mM NaCl, 0.3 mM KCl, 2 mM CaCl2, 1 mM MgCl2, 0.8 mM NaH2PO4, 5 mM Glucose, 28 mM Hepes, pH 7.4) and then loaded with the voltage sensitive dye of the Membrane Potential Assay Kit diluted in tyrode for 1 h at room temperature.
After starting the measurement of fluorescence using a FLIPR Tetra (Molecular Devices, Exc. 510-545 nm, Emm. 565-625 nm), test compounds were added followed by the addition of KCl tyrode (final assay concentration: 70 mM KCl, 2 mM CaCl2, 1 mM MgCl2, 0.8 mM NaH2PO4, 5 mM Glucose, 28 mM Hepes, pH 7.4, including the voltage sensitive dye). The measurement was completed after 7 minutes.

Row | Compound | EC50 [1] [µg/mL] | EC50 [2] [µg/mL] | EC50 (C. elegans Slo-1a) [nM]
1 | CC(C)n1c(C(=O)N[C@H]2CCOc3ccccc32)cc2c(-c3cc(F)cc(F)c3F)cccc21 [Example Compound S2-6, N-[(4S)-3,4-Dihydro-2H-chromen-4-yl]-1-(propan-2-yl)-4-(2,3,5-trifluorophenyl)-1H-indole-2-carboxamide] | 0.0086 (≈ 0.0185 µM) | 0.08 (≈ 0.172 µM) | 15.8
2 | CC(C)c1c(C(=O)N[C@H]2CCOc3ccccc32)sc2c(-c3cccc(Cl)c3)cccc12 [Example Compound S1-2, 7-(3-Chlorophenyl)-N-[(4S)-3,4-dihydro-2H-chromen-4-yl]-3-isopropyl-1-benzothiophene-2-carboxamide] | 0.03 (≈ 0.0649 µM) | > 0.08 | 3.98
3 | CC(C)C1=C(C(=O)N[C@H]2CCOc3ccccc32)COc2c1cccc2-c1cc(Cl)cc(Cl)c1 [Example Compound S8a-1, 8-(3,5-Dichlorophenyl)-N-[(4S)-3,4-dihydro-2H-chromen-4-yl]-4-(propan-2-yl)-2H-chromene-3-carboxamide] | < 0.0032 | 0.04 (≈ 0.0809 µM) | 3.16
4 | O=C(N[C@H]1CCOc2ccccc21)C1=Cc2cccc(-c3cccc(Cl)c3Cl)c2OC1 [Example Compound S8a-5, 8-(2,3-Dichlorophenyl)-N-[(4S)-3,4-dihydro-2H-chromen-4-yl]-2H-chromene-3-carboxamide] | 0.09 (≈ 0.199 µM) | 0.04 (≈ 0.0884 µM) | 5.01
5 | CC(C)c1c(C(=O)N[C@H]2CCOc3ccccc32)c(=O)oc2c(-c3cc(Cl)cc(Cl)c3)cccc12 [Example Compound S8a-2, 8-(3,5-Dichlorophenyl)-N-[(4S)-3,4-dihydro-2H-chromen-4-yl]-2-oxo-4-(propan-2-yl)-2H-chromene-3-carboxamide] | < 0.0032 | 0.18 (≈ 0.354 µM) | 1.26
6 | CC1=C(C(=O)N[C@H]2CCc3ccccc32)C(C)c2cccc(-c3cc(Cl)cc(Cl)c3)c2O1 (stereo partly drawn) [Example Compound S8b-1, 8-(3,5-Dichlorophenyl)-N-[(1S)-2,3-dihydro-1H-inden-1-yl]-2,4-dimethyl-4H-chromene-3-carboxamide] | 1.47 (≈ 3.17 µM) | > 0.4 | 
7 | COc1c(C(=O)N[C@H]2CCOc3ccccc32)sc2c(-c3cccc(Cl)c3Cl)cccc12 [Example Compound S1-11, 7-(2,3-Dichlorophenyl)-N-[(4S)-3,4-dihydro-2H-chromen-4-yl]-3-methoxy-1-benzothiophene-2-carboxamide] | 0.04 (≈ 0.0826 µM) | > 0.08 | 31.6
8 | CC1=C(C(=O)N[C@H]2CCCc3ccccc32)C(C)c2cccc(-c3cc(F)cc(F)c3F)c2O1 (stereo partly drawn) [Example Compound S8b-2, 2,4-Dimethyl-N-[(1S)-1,2,3,4-tetrahydronaphthalen-1-yl]-8-(2,3,5-trifluorophenyl)-4H-chromene-3-carboxamide] | 0.08 (≈ 0.173 µM) | 1.26 (≈ 2.72 µM) | > 50100
9 | CC(C)c1c(C(=O)N[C@H]2CCOc3ccccc32)sc2c(-c3cccc(Cl)c3Cl)cccc12 [Example Compound S1-3, 7-(2,3-Dichlorophenyl)-N-[(4S)-3,4-dihydro-2H-chromen-4-yl]-3-isopropyl-1-benzothiophene-2-carboxamide] | 0.01 (≈ 0.0201 µM) | 0.03 (≈ 0.0604 µM) | 0.631
10 | Cc1nn(-c2cc(Cl)cc(Cl)c2)c2ncc(C(=O)N[C@H]3CCOc4ccccc43)c(N(C)C)c12 [Example Compound S4-2, 1-(3,5-Dichlorophenyl)-N-[(4S)-3,4-dihydro-2H-chromen-4-yl]-4-(dimethylamino)-3-methyl-1H-pyrazolo[3,4-b]pyridine-5-carboxamide] | > 2 |  | 2000
11 | CN(C)c1c(C(=O)N[C@H]2CCOc3ccccc32)sc2c(-c3cccc(Cl)c3Cl)nccc12 [Example Compound S1-13, 7-(2,3-Dichlorophenyl)-N-[(4S)-3,4-dihydro-2H-chromen-4-yl]-3-(dimethylamino)thieno[2,3-c]pyridine-2-carboxamide] | 0.08 (≈ 0.161 µM) |  | 15.8
12 | COc1c(C(=O)N[C@H]2CCOc3ccccc32)sc2c(-c3cccc(Cl)c3)nccc12 [Example Compound S1-15, 7-(3-Chlorophenyl)-N-[(4S)-3,4-dihydro-2H-chromen-4-yl]-3-methoxythieno[2,3-c]pyridine-2-carboxamide] | > 2 |  | 794
13 | Cn1c(C(=O)N[C@H]2CCc3ccccc32)nc2c(-c3cccc(Cl)c3Cl)ccnc21 [Example Compound S2-2, 7-(2,3-Dichlorophenyl)-N-[(1S)-2,3-dihydro-1H-inden-1-yl]-3-methyl-3H-imidazo[4,5-b]pyridine-2-carboxamide] | 0.37 (≈ 0.846 µM) |  | 501
